Results taken from patent publication US20230066011A1, “PYRROLOPYRIMIDINE DERIVATIVE, AND PHARMACEUTICAL COMPOSITION FOR PREVENTING OR TREATING PROTEIN KINASE-RELATED DISEASE COMPRISING SAME AS ACTIVE INGREDIENT” (VORONOI CO., LTD., priority 2019, published 2023).

Experiments:
MDA-MB-468 cell line = assay: Inhibition of proliferation of MDA-MB-468 cancer cells (Cell Titer-Glo); format: cell-based; conditions: Homo sapiens, MDA-MB-468, 72 hours
Method: (§1) To evaluate an inhibitory effect on the proliferation of cancer cells, each of an MDA-MB-231 cell line (Korean Cell Line Bank #30026) and an MDA-MB-468 cell line as triple-negative breast cancer cell lines, and SHP-77 (ATCC #CRL-2195) as a small-cell lung cancer cell line was cultured in DMEM (HyClone #SH30243) or an RPMI medium (HyClone #SH3027.01) to analyze a cell growth rate. More specifically, a cell line was plated on a 96-well flat bottom plate (Corning #3903) at a density of 2,000 cells/100 μL per well, and then treated with 11 concentrations of the Example compound, a solution of which was diluted 3-fold so that a final concentration of the compound was 10.000000, 3.333333, 1.111111, 0.370370, 0.123457, 0.041152, 0.013717, 0.004572, 0.001524, 0.000508, and 0.000169 μM. After 72 hours, each of the culture media was treated with 100 μL of Cell Titer-Glo (Promega G7573), and then cultured at room temperature for 10 minutes. Then, a degree of luminescence was measured using a microplate reader. A GI50 value was calculated from the measured degree of luminescence using Prism (Version 8.2 GraphPad) software.

human GST-DYRK1A = biological target: T1, human GST-DYRK1A (Homo sapiens, UniProt Q13627); assay: GST-DYRK1A enzyme inhibition, ADP-Glo kinase assay; format: biochemical; conditions: ATP 10 μM, GST-DYRK1A full length, read-out: DYRK1 IC50
T1 construct: purified human GST-DYRK1A (full length, Thermo Scientifics) enzyme; purchased Thermo Scientifics
How it was run: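 Full-length human GST-DYRK1A (10 ng) with 10 μM ATP and specific substrate in 40 mM Tris-HCl pH 7.4, 20 mM MgCl2, 0.5 mg/mL BSA, 50 μM DTT, 1 h at 25 °C. ADP formation read by ADP-Glo luminescence relative to solvent control; IC50 from three data sets.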

LRRK2 (G2019S) = LRRK2 (G2019S) (Homo sapiens, UniProt Q5S007, G2019S); assay: LRRK2 G2019S enzyme inhibition, ADP-Glo kinase assay; format: biochemical; set-up: purchased SignalChem L10-12GG; conditions: ATP 25 μM
How it was run: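 Purified human LRRK2 G2019S (16 ng) with 25 μM ATP and 0.2 μg substrate, 2 h at 25° C. in Tris-HCl pH 7.4, MgCl2, BSA, DTT buffer; compounds at 12 final concentrations, 50 μM down to 0.000001024 μM. ADP-Glo luminescence versus solvent control gave IC50.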

LRRK2 = LRRK2 (Homo sapiens, UniProt Q5S007); assay: LRRK2 enzyme inhibition, ADP-Glo kinase assay; format: biochemical; set-up: purchased Invitrogen PR8604B; conditions: ATP 10 μM
How it was run: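 Purified human LRRK2 (25 ng) with 10 μM ATP and 0.2 μg substrate in 40 mM Tris-HCl pH 7.4, 20 mM MgCl2, 0.5 mg/mL BSA, 50 μM DTT, 2 h at 25° C. ADP-Glo luminescence; 12-point compound series from 50 μM final; IC50 relative to solvent control.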

MDA-MB-231 cell line = assay: Inhibition of proliferation of MDA-MB-231 cancer cells (Cell Titer-Glo); format: cell-based; conditions: Homo sapiens, 72 hours
Method: as §1

human GST-CLK1 = biological target: T2, human GST-CLK1 (Homo sapiens, UniProt P49759); assay: GST-CLK1 enzyme inhibition, ADP-Glo kinase assay; format: biochemical; conditions: ATP 10 μM, GST-CLK1 129-end
T2 construct: purified human GST-CLK1 (129-end, SignalChem) enzyme; purchased SignalChem
How it was run: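 Human GST-CLK1 (129-end, 3 ng) reacted with substrate and 10 μM ATP for 1 h at 25° C in 40 mM Tris-HCl pH 7.4, 20 mM MgCl2, 0.5 mg/mL BSA, 50 μM DTT. ADP-Glo luminescence was normalised to solvent control; IC50 (nM) from 3 data sets.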

LRRK2 (G2019S), sequence (Q5S007 970-2527 G2019S limits assumed): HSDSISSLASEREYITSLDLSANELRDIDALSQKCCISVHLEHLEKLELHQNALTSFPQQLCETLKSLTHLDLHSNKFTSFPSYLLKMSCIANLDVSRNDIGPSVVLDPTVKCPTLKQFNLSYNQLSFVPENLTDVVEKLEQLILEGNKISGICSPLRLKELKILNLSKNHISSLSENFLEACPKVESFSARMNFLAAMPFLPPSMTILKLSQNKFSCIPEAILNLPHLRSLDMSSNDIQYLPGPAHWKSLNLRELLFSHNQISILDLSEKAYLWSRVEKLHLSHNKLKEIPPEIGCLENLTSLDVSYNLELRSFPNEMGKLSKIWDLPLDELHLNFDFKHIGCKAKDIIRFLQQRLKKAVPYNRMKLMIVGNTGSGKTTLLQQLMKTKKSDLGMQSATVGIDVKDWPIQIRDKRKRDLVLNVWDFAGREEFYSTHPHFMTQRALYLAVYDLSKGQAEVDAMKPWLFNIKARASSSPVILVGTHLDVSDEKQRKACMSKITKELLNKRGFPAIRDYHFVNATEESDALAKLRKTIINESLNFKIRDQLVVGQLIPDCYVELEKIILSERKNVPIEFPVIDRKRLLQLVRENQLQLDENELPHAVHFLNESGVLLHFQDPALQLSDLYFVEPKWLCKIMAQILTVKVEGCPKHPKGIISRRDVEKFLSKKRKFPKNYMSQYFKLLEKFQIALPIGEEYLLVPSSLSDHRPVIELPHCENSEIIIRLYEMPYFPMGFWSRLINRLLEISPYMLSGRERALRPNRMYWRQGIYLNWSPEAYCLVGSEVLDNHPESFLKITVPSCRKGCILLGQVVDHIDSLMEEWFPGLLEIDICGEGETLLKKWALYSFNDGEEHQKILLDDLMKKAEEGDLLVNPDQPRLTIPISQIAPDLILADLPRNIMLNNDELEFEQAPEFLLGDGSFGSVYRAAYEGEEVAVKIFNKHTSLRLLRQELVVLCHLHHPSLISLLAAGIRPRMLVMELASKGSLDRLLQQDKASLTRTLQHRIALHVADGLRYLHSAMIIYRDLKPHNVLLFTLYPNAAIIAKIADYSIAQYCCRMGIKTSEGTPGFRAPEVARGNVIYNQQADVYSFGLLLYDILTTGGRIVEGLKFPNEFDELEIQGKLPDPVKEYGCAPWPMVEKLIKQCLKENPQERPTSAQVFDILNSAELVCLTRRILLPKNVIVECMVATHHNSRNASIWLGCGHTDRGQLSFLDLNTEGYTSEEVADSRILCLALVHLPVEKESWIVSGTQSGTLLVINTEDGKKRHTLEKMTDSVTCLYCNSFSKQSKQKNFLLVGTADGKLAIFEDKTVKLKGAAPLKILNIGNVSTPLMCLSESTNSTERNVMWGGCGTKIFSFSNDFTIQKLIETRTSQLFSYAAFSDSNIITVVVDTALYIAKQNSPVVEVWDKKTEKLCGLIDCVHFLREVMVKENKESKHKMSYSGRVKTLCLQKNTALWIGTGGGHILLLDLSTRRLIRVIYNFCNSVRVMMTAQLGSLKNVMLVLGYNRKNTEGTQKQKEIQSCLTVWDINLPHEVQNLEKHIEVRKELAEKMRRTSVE
LRRK2, sequence (Q5S007 970-2527 limits assumed): as the sequence (Q5S007 970-2527 G2019S limits assumed) above, with S1050G counted along it
T2 sequence (P49759 129-484 limits assumed): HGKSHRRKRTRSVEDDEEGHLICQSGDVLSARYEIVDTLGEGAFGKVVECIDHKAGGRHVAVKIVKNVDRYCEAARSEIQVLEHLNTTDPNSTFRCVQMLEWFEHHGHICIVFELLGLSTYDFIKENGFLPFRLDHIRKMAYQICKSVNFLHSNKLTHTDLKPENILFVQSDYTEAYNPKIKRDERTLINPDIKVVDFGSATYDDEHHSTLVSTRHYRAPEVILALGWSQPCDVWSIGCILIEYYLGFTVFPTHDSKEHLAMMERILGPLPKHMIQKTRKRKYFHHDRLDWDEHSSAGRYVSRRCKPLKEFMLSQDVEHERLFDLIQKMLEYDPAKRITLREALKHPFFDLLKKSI

Row | SMILES | GI50 (MDA-MB-468 cell line) | IC50 (human GST-DYRK1A) | IC50 (LRRK2 (G2019S)) | IC50 (LRRK2) | GI50 (MDA-MB-231 cell line) | IC50 (human GST-CLK1)
1 | CCNc1nc(Nc2ccc(S(=O)(=O)N3CCC(N4CCOCC4)CC3)cc2OC)nc2[nH]cc(C#N)c12 [Example 82, 4-(ethylamino)-2-((2-methoxy-4-((4-morpholinopiperidin-1-yl)sulfonyl)phenyl)amino)-7H-pyrrolo[2,3-d]pyrimidine-5-carbonitrile] | < 50 nM | 301 to 1000 nM | < 100 nM | < 100 nM | < 50 nM | < 100 nM
2 | CCCNc1nc(Nc2ccc(S(=O)(=O)N3CCC(N4CCOCC4)CC3)cc2OC)nc2[nH]cc(C#N)c12 [Example 83, 2-((2-methoxy-4-((4-morpholinopiperidin-1-yl)sulfonyl)phenyl)amino)-4-(propylamino)-7H-pyrrolo[2,3-d]pyrimidin-5-carbonitrile] | < 50 nM | 301 to 1000 nM | < 100 nM | < 100 nM | < 50 nM | 101 to 300 nM
3 | COCCNc1nc(Nc2ccc(S(=O)(=O)N3CCC(N4CCOCC4)CC3)cc2OC)nc2[nH]cc(C#N)c12 [Example 87, 2-((2-methoxy-4-((4-morpholinopiperidin-1-yl)sulfonyl)phenyl)amino)-4-((2-methoxyethyl)amino)-7H-pyrrolo[2,3-d]pyrimidine-5-carbonitrile] | < 50 nM | 101 to 300 nM | < 100 nM | < 100 nM | 101 to 300 nM | < 100 nM
4 | N#Cc1c[nH]c2nc(Nc3ccc(C(=O)N4CCOCC4)c4c3OCCO4)nc(NC3CCCC3)c12 [Example 126, 4-(cyclopentylamino)-2-((8-(morpholine-4-carbonyl)-2,3-dihydrobenzo[b][1,4]dioxin-5-yl)amino)-7H-pyrrolo[2,3-d]pyrimidine-5-carbonitrile] | 51 to 100 nM | 301 to 1000 nM | – | < 100 nM | 101 to 300 nM | 301 to 1000 nM
5 | C=CCNc1nc(Nc2ccc(S(=O)(=O)N3CCOCC3)cc2OC)nc2[nH]cc(C#N)c12 [Example 362, 4-(allylamino)-2-((2-methoxy-4-(morpholino-sulfonyl)phenyl)amino)-7H-pyrrolo[2,3-d] pyrimidine-5-carbonitrile] | < 50 nM | 301 to 1000 nM | < 100 nM | < 100 nM | < 50 nM | 301 to 1000 nM
6 | COCCNc1nc(Nc2ccc(S(=O)(=O)N3CCOCC3)cc2OC)nc2[nH]cc(C(F)(F)F)c12 [Example 373, N^2-(2-methoxy-4-(morpholino-sulfonyl)phenyl)-N^4-(2-methoxyethyl)-5-(trifluoromethyl)-7H-pyrrolo[2,3-d]pyrimidine-2,4-diamine] | 301 to 1000 nM | 301 to 1000 nM | < 100 nM | < 100 nM | 301 to 1000 nM | 301 to 1000 nM
7 | COc1cc(S(=O)(=O)N2CCOCC2)ccc1Nc1nc(NC2CC2)c2c(C(F)(F)F)c[nH]c2n1 [Example 374, N^4-cyclopropyl-N^2-(2-methoxy-4-(morpholino-sulfonyl)phenyl)-5-(trifluoromethyl)-7H-pyrrolo[2,3-d]pyrimidine-2,4-diamine] | 301 to 1000 nM | 301 to 1000 nM | < 100 nM | < 100 nM | 301 to 1000 nM | 301 to 1000 nM
8 | COc1cc(S(=O)(=O)N2CCC(N3CCOCC3)CC2)ccc1Nc1nc(NC2CC2)c2c(C(F)(F)F)c[nH]c2n1 [Example 375, N^4-cyclopropyl-N^2-(2-methoxy-4-((4-morpholino-piperidin-1-yl)sulfonyl)phenyl)-5-(trifluoromethyl)-7H-pyrrolo[2,3-d]pyrimidine-2,4-diamine] | 301 to 1000 nM | 301 to 1000 nM | < 100 nM | < 100 nM | 101 to 300 nM | 101 to 300 nM
9 | COc1cc(S(=O)(=O)N2CCOCC2)ccc1Nc1nc(N[C@@H]2CCOC2)c2c(C(F)(F)F)c[nH]c2n1 [Example 382, (R)-N^2-(2-methoxy-4-(morpholino-sulfonyl)phenyl)-N^4-(tetrahydrofuran-3-yl)-5-(trifluoromethyl)-7H-pyrrolo[2,3-d]pyrimidine-2,4-diamine] | 301 to 1000 nM | 301 to 1000 nM | < 100 nM | – | 101 to 300 nM | 301 to 1000 nM
10 | COc1cc(S(=O)(=O)N2CCOCC2)ccc1Nc1nc(N[C@H]2CCOC2)c2c(C(F)(F)F)c[nH]c2n1 [Example 383, (S)-N^2-(2-methoxy-4-(morpholino-sulfonyl)phenyl)-N^4-(tetrahydrofuran-3-yl)-5-(trifluoromethyl)-7H-pyrrolo[2,3-d]pyrimidine-2,4-diamine] | 301 to 1000 nM | 301 to 1000 nM | < 100 nM | – | 101 to 300 nM | 301 to 1000 nM

Second part, the molecule after the results:

Row | GI50 (MDA-MB-468 cell line) | IC50 (human GST-DYRK1A) | IC50 (LRRK2 (G2019S)) | IC50 (LRRK2) | GI50 (MDA-MB-231 cell line) | IC50 (human GST-CLK1) | SMILES
11 | 51 to 100 nM | 101 to 300 nM | < 100 nM | < 100 nM | 101 to 300 nM | 101 to 300 nM | COc1cc(S(=O)(=O)N2CCC(N3CCOCC3)CC2)ccc1Nc1nc(NC2CC2)c2c(C#N)c[nH]c2n1 [Example 88, 4-(cyclopropylamino)-2-((2-methoxy-4-((4-morpholinopiperidin-1-yl)sulfonyl)phenyl)amino)-7H-pyrrolo[2,3-d]pyrimidine-5-carbonitrile]
12 | 101 to 300 nM | 301 to 1000 nM | – | < 100 nM | 101 to 300 nM | 301 to 1000 nM | COc1cc(S(=O)(=O)N2CCC(N3CCOCC3)CC2)ccc1Nc1nc(NCC2CCCC2)c2c(C#N)c[nH]c2n1 [Example 95, 4-((cyclopentylmethyl)amino)-2-((2-methoxy-4-((4-morpholinopiperidin-1-yl)sulfonyl)phenyl)amino)-7H-pyrrolo[2,3-d]pyrimidine-5-carbonitrile]
13 | 301 to 1000 nM | 301 to 1000 nM | 101 to 300 nM | < 100 nM | 301 to 1000 nM | 301 to 1000 nM | CC[C@H](C)Nc1nc(Nc2ccc(S(=O)(=O)N3CCC(N4CCOCC4)CC3)cc2OC)nc2[nH]cc(C(F)(F)F)c12 [Example 211, (S)-N^4-(sec-butyl)-N^2-(2-methoxy-4-((4-morpholinopiperidin-1-yl)sulfonyl)phenyl)-5-(trifluoromethyl)-7H-pyrrolo[2,3-d]pyrimidine-2,4-diamine]
14 | 301 to 1000 nM | 301 to 1000 nM | < 100 nM | 101 to 300 nM | 301 to 1000 nM | 301 to 1000 nM | CCCNc1nc(Nc2ccc(S(=O)(=O)N3CCOCC3)cc2OC)nc2[nH]cc(C(F)(F)F)c12 [Example 372, N^2-(2-methoxy-4-(morpholino-sulfonyl)phenyl)-N^4-propyl-5-(trifluoromethyl)-7H-pyrrolo[2,3-d]pyrimidine-2,4-diamine]
15 | 301 to 1000 nM | 301 to 1000 nM | 101 to 300 nM | 101 to 300 nM | 301 to 1000 nM | < 100 nM | COc1cc(S(=O)(=O)N2CCOCC2)ccc1Nc1nc(NC2CCC2)c2c(C(F)(F)F)c[nH]c2n1 [Example 377, N^4-cyclobuty-N2-(2-methoxy-4-(morpholino-sulfonyl)phenyl)-5-(trifluoromethyl)-7H-pyrrolo[2,3-d]pyrimidine-2,4-diamine]
16 | 101 to 300 nM | 301 to 1000 nM | – | < 100 nM | 51 to 100 nM | 301 to 1000 nM | CCNc1nc(Nc2ccc(S(=O)(=O)N3CCC(N4CCOCC4)CC3)c3c2OCC3)nc2[nH]cc(C(F)(F)F)c12 [Example 467, N^4-ethyl-N^2-(4-((4-morpholino-piperidin-1-yl)sulfonyl)-2,3-dihydrobenzo-furan-7-yl)-5-(trifluoromethyl)-7H-pyrrolo[2,3-d]pyrimidine-2,4-diamine]
